Experimental data published in patent USRE47689E1, “Compounds for treating spinal muscular atrophy” (PTC Therapeutics, Inc., priority 2011, dated 2019).

What was measured:
[1] = system: SMN2 minigene (full length SMN2 minigene mRNA containing SMN2 exon 7); assay: SMN2 minigene mRNA splicing RT-qPCR assay in cultured cells; type: cell-based, human; settings: Homo sapiens, HEK293-H; HEK293H cells stably transfected with SMN2-A minigene; 24 hours; 7-point concentration curve; 1.5-fold relative to vehicle-treated cells; read-out: EC1.5x for production of full length SMN2 mRNA
Summary of the method: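 Full-length SMN2 minigene mRNA (exon 7 included), minigene-specific and not endogenous SMN, quantified by RT-qPCR multiplexed with GAPDH in stably transfected HEK293H cells after 24 h compound exposure at 37° C. Abundance from efficiency-corrected Ct, normalized to GAPDH and vehicle; EC1.5x reported as star bins.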

Smn protein = Smn protein assay in cultured cells (SMN HTRF); type: cell-based, human; settings: 48 hours; for maximum fold (Fold) increase of Smn protein: SMA patient fibroblast cells, 7-point concentration data, fold increase relative to vehicle control (SMN HTRF); for EC1.5x (concentration giving 1.5-fold Smn protein increase): SMA Type 1 patient fibroblast cells (GM03813), 7-point concentration curve, SMN HTRF, concentration producing 1.5 times Smn protein vs DMSO vehicle control, read-out: EC1.5x for Smn protein expression
Summary of the method: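 Smn in SMA fibroblast lysates, measured by anti-SMN HTRF after 48 h compound exposure; EC1.5x from fold change over vehicle.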

Row | Structure (SMILES) | melting point [°C] | EC (1.5-fold) [1] [µM] | maximum fold (Fold) increase of Smn protein (Smn protein) | EC1.5x (concentration giving 1.5-fold Smn protein increase) (Smn protein) [nM]
1 | O=c1oc2cc(N3CCNCC3)ccc2cc1-c1cn2cccc(F)c2n1 [Compound 149, 3-(8-fluoroimidazo[1,2-a]pyridin-2-yl)-7-(piperazin-1-yl)-2H-chromen-2-one] | 236 to 238 | 1 to 3 | *** (fold increase between >1.35 and ≤1.5) | –
2 | O=c1oc2cc(N3CCNCC3)cc(F)c2cc1-c1nc2c(F)cccc2o1 [Compound 292, 5-fluoro-3-(4-fluoro-1,3-benzoxazol-2-yl)-7-(piperazin-1-yl)-2H-chromen-2-one] | 225 to 230 | 0.3 to 1 | *** (fold increase between >1.35 and ≤1.5) | –
3 | C[C@@H]1CN(c2ccc3cc(-c4nc5ccccc5o4)c(=O)oc3c2)C[C@H](C)N1 [Compound 23, 3-(1,3-benzoxazol-2-yl)-7-[(3R,5S)-3,5-dimethylpiperazin-1-yl]-2H-chromen-2-one] | 230 to 232 | 1 to 3 | * (maximum fold increase of ≤1.2) | –
4 | C[C@@H]1CN(c2ccc3cc(-c4cn5ccc(C(F)(F)F)cc5n4)c(=O)oc3c2)C[C@H](C)N1C [Compound 168, 3-[7-(trifluoromethyl)imidazo[1,2-a]pyridin-2-yl]-7-[(3R,5S)-3,4,5-trimethylpiperazin-1-yl]-2H-chromen-2-one] | 267 to 275 | 1 to 3 | * (maximum fold increase of ≤1.2) | –
5 | Cc1ccn2cc(-c3cc4ccc(N5CCNCC5)cc4oc3=O)nc2c1 [Compound 131, 3-(7-methylimidazo[1,2-a]pyridin-2-yl)-7-(piperazin-1-yl)-2H-chromen-2-one] | 260 to 270 | 0.3 to 1 | *** (fold increase between >1.35 and ≤1.5) | –

The next lines start with results.

Row | melting point [°C] | Structure (SMILES) | EC (1.5-fold) [1] [µM] | maximum fold (Fold) increase of Smn protein (Smn protein) | EC1.5x (concentration giving 1.5-fold Smn protein increase) (Smn protein) [nM]
6 | 266 to 276 | C[C@@H]1CN(c2cc(F)c3cc(-c4cn5cccc(Cl)c5n4)c(=O)oc3c2)CCN1 [Compound 390, 3-(8-chloroimidazo[1,2-a]pyridin-2-yl)-5-fluoro-7-[(3R)-3-methylpiperazin-1-yl]-2H-chromen-2-one] | 0.1 to 0.3 | *** (fold increase between >1.35 and ≤1.5) | –
7 | 220 to 228 | Cc1cn2cc(-c3cc4ccc(N5CC(N6CCCCC6C)C5)cc4oc3=O)nc2c(C)n1 (centres unmarked) [Compound 942, 3-(6,8-dimethylimidazo[1,2-a]pyrazin-2-yl)-7-[3-(2-methylpiperidin-1-yl)azetidin-1-yl]-2H-chromen-2-one] | < 0.1 | *** (fold increase between >1.35 and ≤1.5) | 1000 to 3000
8 | 215 to 217 | Cc1nc2ccc(-c3cc4ccc(N5CCN(C)CC5)cc4oc3=O)cc2s1 [Cpd 769, 3-(2-methyl-1,3-benzothiazol-6-yl)-7-(4-methylpiperazin-1-yl)-2H-chromen-2-one] | 0.3 to 1 | ** (fold increase between >1.2 and ≤1.35) | –
9 | 170 to 174 | COc1cc(-c2cc3ccc(N4CCNCC4)cc3oc2=O)ccc1C [Compound 574, 3-(3-methoxy-4-methylphenyl)-7-(piperazin-1-yl)-2H-chromen-2-one] | 1 to 3 | * (maximum fold increase of ≤1.2) | –
10 | 296 to 306 | Cc1cc(F)c2nc(-c3cc4ccc(N5CCN6CCC[C@@H]6C5)cc4oc3=O)cn2c1 [Compound 611, 3-(8-fluoro-6-methylimidazo[1,2-a]pyridin-2-yl)-7-[(8aR)-hexahydropyrrolo[1,2-a]pyrazin-2(1H)-yl]-2H-chromen-2-one] | 0.3 to 1 | **** (fold increase between >1.5 and ≤1.65) | 1000 to 3000
